For one assay, the system named is UCB CD133+ cells (HSPC). The assay is described as follows: Ex vivo expansion of umbilical cord blood CD133+ cells, flow cytometry and cell counting. The format is cell-based, human. The following applies: for fold expansion of total nucleated cells (TNC) compared to cells grown in basal media / fold expansion of HSC (Lin-, CD38-, CD34+, CD45RA-, CD133+, CD90+, CD49f+) higher than basal media containing cytokines: 5 day culture; for fold expansion of total nucleated cells (TNC) compared to cells grown in basal media: HDAC inhibitor with cytokines, with or without WR1065 (100 μM), vs basal media containing cytokines; for fold expansion of HSC compared to cells grown in basal media: expansion protocol as defined above, HDAC inhibitor with or without WR1065; for fold expansion of HSC (Lin-, CD38-, CD34+, CD45RA-, CD133+, CD90+, CD49f+) higher than basal media containing cytokines: scriptaid 1 μM, WR1065 100 μM, FIG. 3. An excerpt:
Human UCB units were collected with written informed pre-consent and ethical approval from Oxford and Berkshire National Research Ethical Committees and studies conducted with approval of the NHSBT research committee. UCB mononuclear cells (MNC) were isolated by density gradient centrifugation on lymphocyte separation medium 1077 (PAA Laboratories, Pasching, Austria; density<1.077 g/ml). CD133+ cells were isolated from the MNC with immunomagnetic beads (Miltenyi Biotec, Germany). After isolation, the cells were cryopreserved in 10% DMSO in FCS (fetal calf serum) and stored at −150° C. in aliquots of 1×10^5 cells/vial. Cells were analysed for the purity of the isolation with flow cytometry on a BD LSR II (BD Biosciences, CA) using CD34-APC, CD133-PE and the appropriate isotype controls (all Miltenyi Biotec). Bone marrow derived CD133+ cells were obtained commercially from Lonza and peripheral blood CD133+ cells were isolated using immunomagnetic beads as above from total peripheral blood mononuclear cells obtained commercially from Lonza Biologics.
Vials from 2 or 3 donors were thawed and pooled in StemSpan ACF media (Stem Cell Technologies) containing 100 ng/mL SCF, 100 ng/mL FLT3LG and 20 ng/mL TPO (all from Miltenyi Biotec). After counting, cells were plated in 96 well round bottom suspension plates at 20,000 cells/well in the above media. Cells were allowed to recover overnight in these conditions in a 37° C. humidified incubator with 5% CO2.
The next day cells were harvested from the plates counted, and seeded into 24 well Nanex plates (Compass Biomedical) or standard tissue culture treated plates at 2500 cells/well in 1 mL basal media (StemSpan ACF with 100 ng/mL SCF, 100 ng/mL FLT3LG and 20 ng/mL TPO) containing an HDAC inhibitor (for most experiments scriptaid was used at a concentration of 1 μM). An aliquot of cells was used for CFU analysis and another for flow cytometry analysis.
After 3 days in culture the media was either replaced or supplemented with fresh media with the cytokines (SCF, TPO and FLT3LG) and the HDAC inhibitors (scriptaid 1 μM). Sixteen to twenty hours prior to harvest WR1065 was added at a concentration of 100 μM. After total of 5 days in expansion, cells are harvested, counted and analysed by flow cytometry.
Cells were harvested, washed and stained in 3% FBS in PBS using a panel of pre-conjugated antibodies. Cells were incubated with antibodies on ice for 30 min, then washed twice in 3% FBS in PBS and resuspended in 250 uL of above buffer before being analysed using a BD Canto II flow cytometer. [Antibody panel was as follows: 5 Lin custom cocktail (CD235a, CD4, CD10, CD11b and CD19) APC-Vio770, CD38-PE-Vio770, CD34-PerCP-Vio700, CD133-PE, CD45RA-VioBlue, CD49f-FITC, CD90-APC (all from Miltenyi Biotec).]
Cell number was measured using flow cytometry with the aid of counting beads (CountBright beads Life Technologies).

For assay [1], the system named is bone marrow derived CD34+ cells. The settings on record: pre-treatment of cells in vitro; cited from earlier work.
Where [2] appears, read: UCB cells from three separate donors and a pooled sample, FIG. 13.

The source of these data is patent US11702635B2, “Hematopoietic stem cell expansion method” (PLASTICELL LIMITED, priority 2017, dated 2023).

With `Cc1cc(C)cc(C(=O)NOCCCCCC(=O)NO)c1` [LMK235], in the assay with UCB CD133+ cells (HSPC), the “fold expansion of total nucleated cells (TNC) compared to cells grown in basal media” value (“fold expansion of total nucleated cells” below) is recorded as “slightly lower” and the “fold expansion of HSC compared to cells grown in basal media” value is “significantly increased”.
With `Nc1cc(F)ccc1NC(=O)/C=C/c1cnn(C/C=C/c2ccccc2)c1` [RGFP966], in the assay on UCB CD133+ cells (HSPC), the “fold expansion of total nucleated cells” value is “increase” and the “fold expansion of HSC compared to cells grown in basal media” value is “similar”.
In the same order, the values of `CN1CCc2c(c3ccccc3n2Cc2ccc(C(=O)NO)cc2)C1` [Tubastatin A] are “similar” and “significantly increased”.
As to `NCCCNCCS` [WR1065], the “enhancement of formation of CFU-GEMM and BFU-E colonies” value in assay [1] is reported as ≤ 38 fold. The “fold expansion of HSC (Lin-, CD38-, CD34+, CD45RA-, CD133+, CD90+, CD49f+) higher than basal media containing cytokines” value in the assay with UCB CD133+ cells (HSPC) is “around 3 fold”.
Turning to `Cn1cc(CNCC2CCN(c3ncc(C(=O)NO)cn3)CC2)c2ccccc21` [quisinostat], in the assay with UCB CD133+ cells (HSPC), the “fold expansion of total nucleated cells” value was “slightly lower” and the “fold expansion of HSC compared to cells grown in basal media” value is given as “significantly increased”.
For `O=C(CCCCCN1C(=O)c2cccc3cccc(c23)C1=O)NO` [scriptaid], in the assay on UCB CD133+ cells (HSPC), the “fold expansion of total nucleated cells” value was “slightly reduced” and the “fold expansion of HSC (Lin-, CD38-, CD34+, CD45RA-, CD133+, CD90+, CD49f+) higher than basal media containing cytokines” value is “approximately 10 fold”. Besides, the “fold expansion of HSC compared to cells cultured in basal media, different culture plates” value in the assay on UCB CD133+ cells (HSPC) (Nanex scaffolds, TC treated Corning 24 well plates or suspension Greiner Bio 24 well plates, effect similar across all surfaces, FIG. 14) is reported as “significantly increased”. Also, in the assay with UCB CD133+ cells (HSPC) (setting [2]), the “fold expansion of HSC higher compared to basal media, average” value stood at 30 fold and the “fold expansion of HSC higher compared to basal media, range” value is 10-55 fold. Besides, in the assay with UCB CD133+ cells (HSPC) (after 5 days in culture), the “proportion of CD133+/CD34+ cells compared to cells grown on cytokines alone” value is on record as “increase”.
As for sodium phenylbutyrate, in the assay with UCB CD133+ cells (HSPC), the “fold expansion of total nucleated cells” value was “increase” and the “fold expansion of HSC compared to cells grown in basal media” value is recorded as “increased”.
